#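 Five concentrations, 48 hours, 96-well plates. TGI is the concentration that stops growth completely.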
# How the values were obtained:
# Experiment in all cases: growth of human tumour cells (NCI), 48 h
# MALME-3M melanoma = system: MALME-3M melanoma
# TK-10 renal = system: TK-10 renal
# MDA-MB-435 = system: MDA-MB-435
# MDA-N = system: MDA-N
# ACHN renal = system: ACHN renal
# SW-620 colon = system: SW-620 colon
# SK-MEL-2 melanoma = system: SK-MEL-2 melanoma
# SF-539 CNS = system: SF-539 CNS
# UACC-257 melanoma = system: UACC-257 melanoma
# MDA-MB-231 breast = system: MDA-MB-231 breast
# NCI-H460 lung = system: NCI-H460 lung
# KM12 colon = system: KM12 colon
# HOP-62 NSCLC = system: HOP-62 NSCLC
# A498 renal = system: A498 renal
# K-562 leukemia = system: K-562 leukemia
# LOX IMVI melanoma = system: LOX IMVI melanoma
# SNB-19 CNS = system: SNB-19 CNS
# UACC-62 melanoma = system: UACC-62 melanoma
# SK-MEL-5 melanoma = system: SK-MEL-5 melanoma
# PC-3 prostate = system: PC-3 prostate
# HT29 colon = system: HT29 colon
# A549 NSCLC = system: A549 NSCLC
# SK-MEL-28 melanoma = system: SK-MEL-28 melanoma
# M14 melanoma = system: M14 melanoma
# MOLT-4 leukemia = system: MOLT-4 leukemia
# BT-549 breast = system: BT-549 breast
# HCT-116 colon = system: HCT-116 colon
# COLO 205 colon = system: COLO 205 colon
# SR leukemia = system: SR leukemia
# RPMI-8226 leukemia = system: RPMI-8226 leukemia
# SF-295 CNS = system: SF-295 CNS
# EKVX NSCLC = system: EKVX NSCLC
# HS 578T breast = system: HS 578T breast
# 786-0 renal = system: 786-0 renal
# OVCAR-3 ovarian = system: OVCAR-3 ovarian
# IGROV1 ovarian = system: IGROV1 ovarian
# T-47D breast = system: T-47D breast
# SN12C renal = system: SN12C renal
# OVCAR-5 ovarian = system: OVCAR-5 ovarian
# U251 CNS = system: U251 CNS
# NCI-H522 lung = system: NCI-H522 lung
# NCI-H23 lung = system: NCI-H23 lung
# UO-31 renal = system: UO-31 renal
# HCT-15 colon = system: HCT-15 colon
# HL-60(TB) leukemia = system: HL-60(TB) leukemia
# MCF7 breast = system: MCF7 breast
# OVCAR-8 ovarian = system: OVCAR-8 ovarian
# HCC-2998 colon = system: HCC-2998 colon
# NCI/ADR-RES ovarian = system: NCI/ADR-RES ovarian
smiles,measurement,setting,value
COc1cc2c3c(c1O)N=NC=3CCN=2,TGI,MALME-3M melanoma,30.2 µM
same,TGI,TK-10 renal,52.3 µM
same,TGI,MDA-MB-435,24.5 µM
same,TGI,MDA-N,25.1 µM
same,TGI,ACHN renal,33.8 µM
same,TGI,SW-620 colon,31.7 µM
same,TGI,SK-MEL-2 melanoma,30.9 µM
same,TGI,SF-539 CNS,35.5 µM
same,TGI,UACC-257 melanoma,29.1 µM
same,TGI,MDA-MB-231 breast,29.8 µM
same,TGI,NCI-H460 lung,80.1 µM
same,TGI,KM12 colon,88.4 µM
same,TGI,HOP-62 NSCLC,97.3 µM
same,TGI,A498 renal,75.4 µM
same,TGI,K-562 leukemia,18.3 µM
same,TGI,LOX IMVI melanoma,18 µM
same,TGI,SNB-19 CNS,> 100 µM
same,TGI,UACC-62 melanoma,30.7 µM
same,TGI,SK-MEL-5 melanoma,32.5 µM
same,TGI,PC-3 prostate,84.8 µM
same,TGI,HT29 colon,28.8 µM
same,TGI,A549 NSCLC,66.4 µM
same,TGI,SK-MEL-28 melanoma,32.1 µM
same,TGI,M14 melanoma,28.8 µM
same,TGI,MOLT-4 leukemia,50.4 µM
same,TGI,BT-549 breast,31.7 µM
same,TGI,HCT-116 colon,28.1 µM
same,TGI,COLO 205 colon,35.2 µM
same,TGI,SR leukemia,42.3 µM
same,TGI,RPMI-8226 leukemia,31.1 µM
same,TGI,SF-295 CNS,50.9 µM
same,TGI,EKVX NSCLC,30.7 µM
same,TGI,HS 578T breast,> 100 µM
same,TGI,786-0 renal,32.7 µM
same,TGI,OVCAR-3 ovarian,31 µM
same,TGI,IGROV1 ovarian,34 µM
same,TGI,T-47D breast,23.3 µM
same,TGI,SN12C renal,29.3 µM
same,TGI,OVCAR-5 ovarian,34.4 µM
same,TGI,U251 CNS,30.6 µM
same,TGI,NCI-H522 lung,19.4 µM
same,TGI,NCI-H23 lung,38.2 µM
same,TGI,UO-31 renal,62.5 µM
same,TGI,HCT-15 colon,> 100 µM
same,TGI,HL-60(TB) leukemia,14.8 µM
same,TGI,MCF7 breast,20.2 µM
same,TGI,OVCAR-8 ovarian,30.9 µM
same,TGI,HCC-2998 colon,> 100 µM
same,TGI,NCI/ADR-RES ovarian,> 100 µM
